Assays:
[1] = system: Colon cancer (C26, murine) cells; assay: Tumor cell proliferation assay (ATP-lite), C26; type: cell-based; settings: Mus musculus, 96 h, inhibition of tumor cell growth by 50%, 4 days incubation, ATP-lite readout
Protocol: (§1) Assay 1: Tumor Cell Proliferation Assay:
(§2) Colon cancer (C26, murine), pancreatic cancer (MiaPaCa-2, human) cells were plated in 96-well white plates (Cat. No. 3917, Corning, Inc.) at 2.5×10^3 cells/well and cultured overnight at 37° C. in 5% CO2 in DMEM containing 10% FCS. Inhibitors were serially diluted in 100% DMSO and subsequently added to cells to reach a final concentration of 0.25% DMSO. Cell plates were incubated for an additional 4 days at 37° C. and 5% CO2 and cell proliferation was quantitated using the ATP-lite cell proliferation kit (Cat. No. 6016943, Perkin Elmer).
(§3) The ATPlite kit quantifies the ATP released from lysed cells by the generation of light caused by the reaction of the released ATP with the Luciferase and D-Luciferin contained in the kit. After the 4th day of incubation, the media is removed from the cell plates and replaced with 100 μL of PBS followed by 50 μL of the lysis solution. The plates are then shaken for 5 minutes on an orbital shaker followed by the addition of 50 μL of substrate solution. The plates are shaken for an additional 5 minutes followed by dark adaptation for 10 minutes and finally read on a Victor^3 V plate reader (1 second/well, Cat. No. 1420-041, Perkin Elmer).
(§4) Columns 2-3 show the concentration of compounds required to inhibit the growth of tumor cells by 50% (IC50 in μM).

[2] = system: pancreatic cancer (MiaPaCa-2, human) cells; assay: Tumor cell proliferation assay (ATP-lite), MiaPaCa-2; type: cell-based; settings: MIA PaCa-2, 96 h; inhibition of tumor cell growth by 50%; MiaPaCa-2 human pancreatic cancer cells; 4 days incubation; ATP-lite readout
Protocol: as §1, §2, §3, §4

Row | SMILES | IC50 [1] [µM] | IC50 [2] [µM]
1 | CC(=NN(C)c1cc(-c2ccccc2)nc(C)n1)c1ccc(C)cc1 [Compound 39, N-Methyl-N-(2-methyl-6-phenyl-pyrimidin-4-yl)-N′-[1-p-tolyl-ethylidene]-hydrazine] | < 1 | < 1
2 | CC(=NNc1cc(-c2ccccc2)nc(C)n1)c1ccc(NC(N)=S)cc1 [Compound 19, 4-({1-[(2-Methyl-6-phenyl-pyrimidin-4-yl)-hydrazono]-ethyl}-phenyl)-thiourea] | 1 to 15 | 1 to 15
3 | CC(=NNc1nc(C(F)(F)F)nc2ccccc12)c1ccc(C)cc1 [Compound 3, N-(1-p-Tolyl-ethylidene)-N′-(2-trifluoromethyl-quinazolin-4-yl)-hydrazine] | 1 to 15 | 1 to 15
4 | CCc1ccc(C(C)=NNc2cc(-c3ccccc3)nc(C)n2)cc1 [Compound 43, N-[1-(4-Ethyl-phenyl)-ethylidene]-N′-(2-methyl-6-phenyl-pyrimidin-4-yl)-hydrazine] | < 1 | –
5 | CC(=NNc1cc(-c2ccccc2CO)nc(C)n1)c1ccc(C)cc1 [Compound 35, [2-(2-Methyl-6-{N′-[1-p-tolyl-ethylidene]-hydrazino}-pyrimidin-4-yl)-phenyl]-methanol] | < 1 | < 1
6 | COc1cccc(-c2cc(NN=C(C)c3ccc(C)cc3)nc(C)n2)c1 [Compound 28, N-[6-(3-Methoxy-phenyl)-2-methylpyrimidin-4-yl]-N′-[1-p-tolyl-ethylidene]-hydrazine] | – | 1 to 15
7 | COc1ccccc1-c1cc(NN=C(C)c2ccc(N(C)C)cc2)ncn1 [Compound 17, [4-(1-{[6-(2-Methoxy-phenyl)-pyrimidin-4-yl]-hydrazono}-ethyl)-phenyl]dimethyl amine] | < 1 | < 1
8 | CC(=O)Nc1ccc(C(C)=NNc2cc(-c3ccccc3)nc(C)n2)cc1 [Compound 20, N-(4-{1-[(2-Methyl-6-phenyl-pyrimidin-4-yl)-hydrazono]-ethyl}-phenyl)-acetamide] | 1 to 15 | 1 to 15
9 | CC(=NNc1cc(-c2ccccc2)nc(C)n1)c1ccc(O)cc1 [Compound 48, 4-{1-[(2-Methyl-6-phenyl-pyrimidin-4-yl)-hydrazono]-ethyl}-phenol] | 1 to 15 | –
10 | CC(=NNc1nc(C)nc2ccccc12)c1ccc(C)cc1 [Compound 5, N-(2-Methyl-quinazolin-4-yl)-N-(1-p-tolyl-ethylidene)-hydrazine] | 1 to 15 | 1 to 15
11 | CCc1nc(NN=C(C)c2ccc(C)cc2)cc(-c2ccccc2OC)n1 [Compound 26, N-[2-Ethyl-6-(2-methoxy-phenyl)-pyrimidin-4-yl]-N′-[1-p-tolyl-ethylidene]-hydrazine] | < 1 | < 1
12 | COc1ccc(C(C)=NNc2nc(C)nc3ccccc23)cc1 [Compound 4, N-[1-(4-methoxy-phenyl)-ethylidene]-N′-(2-methyl-quinazolin-4-yl)-hydrazine] | 1 to 15 | 1 to 15
13 | CC(=NNc1cc(-c2c(C)noc2C)nc(C)n1)c1ccc(C)cc1 [Compound 36, N-[6-(3,5-Dimethyl-isoxazol-4-yl)-2-methyl-pyrimidin-4-yl]-N′-[1-p-tolyl-ethylidene]-hydrazine] | < 1 | < 1
14 | CCC(=NNc1cc(-c2ccccc2)nc(C)n1)c1ccc(C)cc1 [Compound 22, N-(2-Methyl-6-phenyl-pyrimidin-4-yl)-N′-[1-p-tolyl-propylidene]-hydrazine] | 1 to 15 | 1 to 15
15 | CC(=NNc1nc(C)nc2ccccc12)c1cccc(C)c1 [Compound 6, N-(2-methyl-quinazolin-4-yl)-N′-(1-m-tolyl-ethylidene)-hydrazine] | 1 to 15 | 1 to 15
16 | CC(=NNc1cc(-c2cccnc2)nc(C)n1)c1ccc(C)cc1 [Compound 37, N-(2-Methyl-6-pyridin-3-yl-pyrimidin-4-yl)-N′-[1-p-tolyl-ethylidene]-hydrazine] | 1 to 15 | –
17 | COc1ccc(C(C)=NNc2cc(-c3ccccc3)nc(C)n2)cc1 [Compound 24, N-[1-(4-Methoxy-phenyl)-ethylidene]-N′-(2-methyl-6-phenyl-pyrimidin-4-yl)-hydrazine] | < 1 | –
18 | COc1cccc(OC)c1-c1cc(NN=C(C)c2ccc(C)cc2)nc(C)n1 [Compound 40, N-[6-(2,6-Dimethoxy-phenyl)-2-methyl-pyrimidin-4-yl]-N′-[1-p-tolyl-ethylidene]-hydrazine] | < 1 | < 1
19 | CC(=NNc1cc(-c2ccccc2)nc(C)n1)c1cccc(N)c1 [Compound 46, 3-{1-[(2-Methyl-6-phenyl-pyrimidin-4-yl)-hydrazono]-ethyl}-phenylamine] | 1 to 15 | –
20 | CC(=NNc1cc(-c2ccccc2N2CCOCC2)nc(C)n1)c1ccc(C)cc1 [Compound 33, N-[2-Methyl-6-(2-morpholin-4-yl-phenyl)-pyrimidin-4-yl]-N′-[1-p-tolyl-ethylidene]-hydrazine] | 1 to 15 | < 1
21 | CCc1nc(NN=C(C)c2ccc(N(C)C)cc2)cc(-c2ccccc2OC)n1 [Compound 16, [4-(1{[2-Ethyl-6-(2-methoxy-phenyl)-pyrimidin-4-yl]-hydrazono}-ethyl)-phenyl]-dimethylamine] | < 1 | < 1
22 | CC(=NNc1cc(-c2ccccc2)nc(C)n1)c1ccc(Br)cc1 [Compound 44, N-[1-(4-Bromo-phenyl)-ethylidene]-N′-(2-methyl-6-phenyl-pyrimidin-4-yl)-hydrazine] | 1 to 15 | –
23 | CNc1ccc(C(C)=NNc2nc(C)nc(-c3ccccc3)c2N)cc1 [Compound 21, 2-Methyl-4-{N′-[1-(4-methylamino-phenyl)-ethylidene]-hydrazino}-6-phenyl-pyrimidin-5-ylamine] | < 1 | < 1
24 | CC(=NNc1cc(-c2ccccc2)nc(C)n1)c1ccc(N(C)C)cc1 [Compound 8, Dimethyl-(4-{1-[(2-methyl-6-phenyl-pyrimidin-4-yl)-hydrazono]ethyl}-phenyl)amine] | < 1 | < 1
25 | CC(=NNc1cc(-c2ccccc2)nc(C)n1)c1ccc(Cl)cc1 [Compound 23, N-[1-(4-Chloro-phenyl)ethylidene]-N′-(2-methyl-6-phenyl-pyrimidin-4-yl)-hydrazine] | 1 to 15 | –
26 | CC(=NNc1cc(-c2c(C)noc2C)nc(C)n1)c1ccc(N(C)C)cc1 [Compound 10, (4-(1-{[6-(3,5-dimethyl-isoxazol-4-yl)-2-methyl-pyrimidin-4-yl]-hydrazono}-ethyl)-phenyl]-dimethylamine] | < 1 | < 1
27 | COc1ccc(-c2cc(NN=C(C)c3ccc(C)cc3)nc(C)n2)cc1 [Compound 30, N-[6-(4-Methoxy-phenyl)-2-methylpyrimidin-4-yl]-N′-[1-p-tolyl-ethylidene]-hydrazine] | – | 1 to 15
28 | CC(=NNc1cc(-c2ccccc2)nc(C)n1)c1ccc(Cl)c(Cl)c1 [Compound 47, N-[1-(3,4-Dichloro-phenyl)-ethylidene]-N′-(2-methyl-6-phenyl-pyrimidin-4-yl)-hydrazine] | 1 to 15 | –
29 | CC(=NNc1cc(-c2ccccc2)nc(C)n1)c1ccc(I)cc1 [Compound 45, N-[1-(4-Iodo-phenyl)-ethylidene]-N′-(2-methyl-6-phenyl-pyrimidin-4-yl)-hydrazine] | 1 to 15 | –

From US8288398B2, “Antiproliferative pyrimidyl, fused pyrimidyl and pyrimidyl hydrazones” (Merck Serono SA, priority 2005, dated 2012)
